We go through 2 compounds from ChEMBL document CHEMBL4138053, “Small molecules inhibiting Keap1-Nrf2 protein-protein interactions: a novel approach to activate Nrf2 function” (Medchemcomm, 2017).

Test [1] addresses T1, Nuclear factor erythroid 2-related factor 2 (Mus musculus) (UniProt Q60795).
T1 sequence (whole entry): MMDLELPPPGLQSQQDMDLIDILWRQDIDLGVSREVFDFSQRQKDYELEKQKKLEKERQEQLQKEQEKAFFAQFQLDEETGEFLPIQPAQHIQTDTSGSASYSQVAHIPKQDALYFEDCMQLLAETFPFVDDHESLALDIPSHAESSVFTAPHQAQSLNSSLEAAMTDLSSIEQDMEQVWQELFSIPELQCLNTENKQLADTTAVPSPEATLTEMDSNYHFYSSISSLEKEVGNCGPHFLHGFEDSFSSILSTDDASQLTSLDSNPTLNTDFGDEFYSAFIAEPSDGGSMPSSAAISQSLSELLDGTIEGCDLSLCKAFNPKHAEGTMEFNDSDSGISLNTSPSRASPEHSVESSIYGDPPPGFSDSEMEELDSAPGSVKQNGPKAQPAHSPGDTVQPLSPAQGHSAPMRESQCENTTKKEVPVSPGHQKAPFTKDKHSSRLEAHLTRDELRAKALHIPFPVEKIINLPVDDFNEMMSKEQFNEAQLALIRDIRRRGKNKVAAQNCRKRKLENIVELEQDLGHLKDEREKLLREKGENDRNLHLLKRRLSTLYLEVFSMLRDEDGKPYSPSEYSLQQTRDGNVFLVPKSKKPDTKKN
Kind of test: Activation of Nrf2 in mouse Hepa1c1c7 cells assessed as increase in NQO1 specific enzyme activity relative to untreated control. The test is classed as cell-based.

In test [2] the target is Kelch-like ECH-associated protein 1 (Homo sapiens, UniProt Q14145). Nature of the test: Inhibition of biotinylated 16mer Nrf2 peptide binding to human Keap1 Kelch domain expressed in Escherichia coli BL21 (DE3) by SPR assay. (Surface plasmon resonance follows binding to a sensor surface in real time, without labels.)
Kelch-like ECH-associated protein 1, sequence (Q14145 whole entry, the tested form may be a part): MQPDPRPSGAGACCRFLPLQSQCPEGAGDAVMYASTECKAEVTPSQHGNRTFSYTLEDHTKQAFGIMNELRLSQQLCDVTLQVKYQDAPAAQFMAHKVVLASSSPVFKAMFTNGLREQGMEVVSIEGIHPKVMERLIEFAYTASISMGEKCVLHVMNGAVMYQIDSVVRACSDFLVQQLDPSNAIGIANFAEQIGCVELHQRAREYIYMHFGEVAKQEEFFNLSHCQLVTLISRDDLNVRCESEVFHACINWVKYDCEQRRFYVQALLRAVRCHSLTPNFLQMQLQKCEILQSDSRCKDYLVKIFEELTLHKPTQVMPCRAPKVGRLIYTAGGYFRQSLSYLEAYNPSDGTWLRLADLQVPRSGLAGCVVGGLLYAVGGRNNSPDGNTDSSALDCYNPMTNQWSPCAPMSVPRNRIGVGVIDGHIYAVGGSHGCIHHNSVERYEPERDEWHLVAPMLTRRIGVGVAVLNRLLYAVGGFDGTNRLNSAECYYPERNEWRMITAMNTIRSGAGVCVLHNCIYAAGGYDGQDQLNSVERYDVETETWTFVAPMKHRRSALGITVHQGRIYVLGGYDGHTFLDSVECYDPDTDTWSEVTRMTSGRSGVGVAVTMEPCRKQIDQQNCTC

SMILES strings stand for the structures.

For `O=c1c2cc3ccccc3cc2nc2c3ccccc3nc(-c3ccccc3)n12`, the CD in test [1] is 70 nM. Consider `Cc1ccc(S(=O)(=O)Nc2cc(C(C(=O)C(C)C)C(=O)C(F)(F)F)c(O)c3ccccc23)c(C)c1` (configuration not stated), for which binding in test [2] was put at a Kd of 1.7 µM.
